# Experiment: Example 3: phase 3 trial, enavogliflozin 0.3 mg vs dapagliflozin 10 mg once a day for 24 weeks added to metformin and gemigliptin in patients with type 2 diabetes (same endpoints, rescue drug)
# Format: in vivo, human
# Conditions: for Subjects achieving therapeutic glycemic response 1, %: response 1 = HbA1c change >0.5% or HbA1c <7%; for Subjects achieving therapeutic glycemic response 2, %: response 2 = HbA1c change >0.7% or HbA1c <7%; for Subjects achieving therapeutic glycemic response 3, %: response 3 = HbA1c change >1% or HbA1c <7%
# Method: 1) when Metformin (≥1,000 mg/Day) was Administered at a Constant Dose for at Least 8 Weeks Prior to Pre-Visit (Pre-Screening) • Metformin (≥1,000 mg/day) and gemigliptin (50 mg/day) were co-administered during the 8-week stabilization period. […] 4) when Metformin (≥1,000 mg/Day) and Gemigliptin (50 mg/Day) were Co-Administered at Constant Doses for at Least 8 Weeks Prior to Pre-Visit (Prescreening) • Without a separate stabilization period, Pre-visit (pre-screening) was Visit 1 (screening).
# Subjects who met the inclusion/exclusion criteria continued to receive metformin and gemigliptin while receiving a placebo of the clinical trial drug in a single-blind (subject-blinded) state for a 2-week run-in period.
# Here, the randomized subjects were stratified according to the administration therapy (co-administration with two or less agents (one or two agents) or three or more agents) of a conventional hypoglycemic agent (before washout of another hypoglycemic agent) within 24 weeks prior to obtaining written informed consent and by an HbA1c value (<8% or ≥8%) at Visit 1 (screening) measured in the central laboratory.
# The randomized subjects were administered two tablets of the clinical trial drug corresponding to each administration group once a day, and then visited the institution at weeks 6, 12, 18, and 24 during the 24-week administration period to conduct efficacy and safety assessments. In addition, during the clinical trial period, they were instructed to exercise regularly and control their diet without changing their daily life patterns.
# • 1) Change in HbA1c at week 24 after administration of clinical trial drug compared to Visit 2 (randomization)
# • 1) Change in HbA1c at each time point of weeks 6, 12, and 18 after administration of clinical trial drug compared to Visit 2 (randomization) • 2) Change in FPG at each time point of weeks 6, 12, 18, and 24 after administration of clinical trial drug compared to Visit 2 (randomization) • 3) Proportion of subjects achieving HbA1c<7% at each time point of weeks 6, 12, 18, and 24 after administration of clinical trial drug • 4) Proportion of subjects achieving HbA1c<6.5% at each time point of weeks 6, 12, 18, and 24 after administration of clinical trial drug • 5) Proportion of subjects achieving therapeutic response (HbA1c change (HbA1c at Visit 2—HbA1c at each evaluation time point)>0.5% or HbA1c<7% at each evaluation time point compared to Visit 2 (randomization)) at each time point of weeks 6, 12, 18, and 24 after administration of clinical trial drug • 6) Proportion of subjects achieving therapeutic response (HbA1c change (HbA1c at Visit 2—HbA1c at each evaluation time point)>0.7% or HbA1c<7% at each evaluation time point compared to Visit 2 (randomization)) at each time point of weeks 6, 12, 18, and 24 after administration of clinical trial drug • 7) Proportion of subjects achieving therapeutic response (HbA1c change (HbA1c at Visit 2—HbA1c at each evaluation time point)>1% or HbA1c<7% at each evaluation time point compared to Visit 2 (randomization)) at each time point of weeks 6, 12, 18, and 24 after administration of clinical trial drug
# [1] = week 18, per-protocol set, enavogliflozin 0.3 mg, dapagliflozin 10 mg
# [2] = week 24, modified per-protocol set 1, enavogliflozin 0.3 mg, dapagliflozin 10 mg
# [3] = week 24, modified per-protocol set 2
# [4] = week 24, modified per-protocol set 2, enavogliflozin 0.3 mg, dapagliflozin 10 mg
# [5] = week 24, per-protocol set, enavogliflozin 0.3 mg, dapagliflozin 10 mg
smiles,measurement,setting,value
"CCOc1ccc(Cc2cc([C@@H]3O[C@H](CO)[C@@H](O)[C@H](O)[C@H]3O)ccc2Cl)cc1 [Dapagliflozin, reference compound]","body weight, Median",[1],62.30 kg
same,"Subjects achieving therapeutic glycemic response 1, %",[1],82.93%
same,"Subjects achieving therapeutic glycemic response 2, %",[1],76.42%
same,"Subjects achieving therapeutic glycemic response 3, %",[1],70.73%
same,"FPG change from baseline, LS mean (SE)",week 24,−23.72(1.78) mg/dL
same,"HDL-C change from baseline, LS mean (SE)",week 24,4.40(0.69) mg/dL
same,"HOMA-IR change from baseline, LS mean (SE)",week 24,−0.93(0.11)
same,"HOMA-β change from baseline, LS mean (SE)",week 24,5.78(4.72)
same,"HbA1c change from baseline, LS mean (SE)",week 24,−0.86(0.05) % p
same,"HbA1c change from baseline, Mean (SD)",week 24,−0.89(0.65) % p
same,"LDL-C change from baseline, LS mean (SE)",week 24,3.12(1.85) mg/dL
same,"UACR change from baseline, LS mean (SE)",week 24,−16.13 (3.84) g/kg
same,"UGCR change from baseline, LS mean (SE)",week 24,43.51(2.26) mg/mg
same,"adiponectin change from baseline, LS mean (SE)",week 24,0.92(0.35) μg/mL
same,"body weight change from baseline, LS mean (SE)",week 24,−3.01(0.22) kg
same,"diastolic blood pressure change from baseline, LS mean (SE)",week 24,−1.89(0.70) mmHg
same,"fasting C-peptide change from baseline, LS mean (SE)",week 24,−0.08(0.02) ng/ml
same,"leptin change from baseline, LS mean (SE)",week 24,−0.57(0.51) ng/mL
same,"systolic blood pressure change from baseline, LS mean (SE)",week 24,−4.27(0.93) mmHg
same,"total cholesterol change from baseline, LS mean (SE)",week 24,5.57(2.03) mg/dL
same,"triglyceride change from baseline, LS mean (SE)",week 24,−8.78(3.94) mg/dL
same,Proportion of subjects who received a rescue drug,"week 24, FAS",0.74%
same,"Change from baseline in HDL-C, ANCOVA LS mean",[2],4.40 mg/dL
same,"Change from baseline in HDL-C, Mean",[2],4.44 mg/dL
same,"Change from baseline in HDL-C, Median",[2],4.00 mg/dL
same,"Change from baseline in LDL-C, ANCOVA LS mean",[2],3.12 mg/dL
same,"Change from baseline in LDL-C, Mean",[2],2.72 mg/dL
same,"Change from baseline in LDL-C, Median",[2],1.50 mg/dL
same,"Change from baseline in total cholesterol, ANCOVA LS mean",[2],5.57 mg/dL
same,"Change from baseline in total cholesterol, Mean",[2],4.69 mg/dL
same,"Change from baseline in total cholesterol, Median",[2],3.00 mg/dL
same,"Change from baseline in triglycerides, ANCOVA LS mean",[2],-8.78 mg/dL
same,"Change from baseline in triglycerides, Mean",[2],-13.81 mg/dL
same,"Change from baseline in triglycerides, Median",[2],-6.00 mg/dL
same,"Fasting HDL-C, Mean",[2],51.87 mg/dL
same,"Fasting HDL-C, Median",[2],50.50 mg/dL
same,"Fasting LDL-C, Mean",[2],80.13 mg/dL
same,"Fasting LDL-C, Median",[2],71.50 mg/dL
same,"Fasting total cholesterol, Mean",[2],148.49 mg/dL
same,"Fasting triglycerides, Mean",[2],118.68 mg/dL
same,"Fasting triglycerides, Median",[2],104.00 mg/dL
same,"fasting Total cholesterol, Median",[2],145.00 mg/dL
same,"Change from baseline in diastolic blood pressure, ANCOVA LS mean",[3],−1.89 mmHg
same,"Change from baseline in diastolic blood pressure, Mean",[3],−1.60 mmHg
same,"Change from baseline in diastolic blood pressure, Median",[3],−2.00 mmHg
same,"Diastolic blood pressure, Mean",[3],72.27 mmHg
same,"Diastolic blood pressure, Median",[3],73.00 mmHg
same,"Change from baseline in systolic blood pressure, ANCOVA LS mean",[4],−4.27 mmHg
same,"Change from baseline in systolic blood pressure, Mean",[4],−3.74 mmHg
same,"Change from baseline in systolic blood pressure, Median",[4],−4.00 mmHg
same,"Systolic blood pressure, Mean",[4],120.20 mmHg
same,"Systolic blood pressure, Median",[4],119.00 mmHg
same,"Adiponectin, Mean","week 24, per-protocol set",7.18 µg/mL
same,"Adiponectin, Median","week 24, per-protocol set",6.39 µg/mL
same,"Change from baseline in HOMA-IR, ANCOVA LS mean","week 24, per-protocol set",−0.93
same,"Change from baseline in HOMA-IR, Mean","week 24, per-protocol set",−0.88
same,"Change from baseline in HOMA-IR, Median","week 24, per-protocol set",−0.70
same,"Change from baseline in HOMA-β, ANCOVA LS mean","week 24, per-protocol set",5.78
same,"Change from baseline in HOMA-β, Mean","week 24, per-protocol set",7.95
same,"Change from baseline in HOMA-β, Median","week 24, per-protocol set",7.20
same,"Change from baseline in UACR, ANCOVA LS mean","week 24, per-protocol set",-16.13 g/kg
same,"Change from baseline in UACR, Mean","week 24, per-protocol set",-11.12 g/kg
same,"Change from baseline in UACR, Median","week 24, per-protocol set",-0.70 g/kg
same,"Change from baseline in UGCR, ANCOVA LS mean","week 24, per-protocol set",43.51 mg/mg
same,"Change from baseline in UGCR, Mean","week 24, per-protocol set",42.31 mg/mg
same,"Change from baseline in UGCR, Median","week 24, per-protocol set",42.35 mg/mg
same,"Change from baseline in adiponectin, ANCOVA LS mean","week 24, per-protocol set",0.92 µg/mL
same,"Change from baseline in adiponectin, Mean","week 24, per-protocol set",0.84 µg/mL
same,"Change from baseline in adiponectin, Median","week 24, per-protocol set",0.78 µg/mL
same,"Change from baseline in leptin, ANCOVA LS mean","week 24, per-protocol set",-0.57 ng/mL
same,"Change from baseline in leptin, Mean","week 24, per-protocol set",-0.74 ng/mL
same,"Change from baseline in leptin, Median","week 24, per-protocol set",-0.46 ng/mL
same,"HOMA-IR (insulin resistance), Mean","week 24, per-protocol set",1.97
same,"HOMA-IR (insulin resistance), Median","week 24, per-protocol set",1.55
same,"HOMA-β (beta-cell function), Mean","week 24, per-protocol set",48.41
same,"HOMA-β (beta-cell function), Median","week 24, per-protocol set",36.70
same,"Leptin, Mean","week 24, per-protocol set",10.10 ng/mL
same,"Leptin, Median","week 24, per-protocol set",8.14 ng/mL
same,"UACR, Mean","week 24, per-protocol set",23.58 g/kg
same,"UACR, Median","week 24, per-protocol set",10.20 g/kg
same,"UGCR, Mean","week 24, per-protocol set",43.84 mg/mg
same,"UGCR, Median","week 24, per-protocol set",42.85 mg/mg
same,"Body weight, Mean",[5],64.38 kg
same,"Change from baseline in FPG, ANCOVA LS mean",[5],-23.72 mg/dL
same,"Change from baseline in FPG, Mean",[5],-23.70 mg/dL
same,"Change from baseline in FPG, Median",[5],-20.00 mg/dL
same,"Change from baseline in body weight, ANCOVA LS mean",[5],-3.01 kg
same,"Change from baseline in body weight, Mean",[5],-2.83 kg
same,"Change from baseline in body weight, Median",[5],-2.60 kg
same,"Change from baseline in fasting C-peptide, ANCOVA LS mean",[5],-0.08 ng/mL
same,"Change from baseline in fasting C-peptide, Mean",[5],-0.07 ng/mL
same,"Change from baseline in fasting C-peptide, Median",[5],-0.10 ng/mL
same,"FPG, Mean",[5],116.82 mg/dL
same,"FPG, Median",[5],114.00 mg/dL
same,"Fasting C-peptide, Mean",[5],0.62 ng/mL
same,"Fasting C-peptide, Median",[5],0.56 ng/mL
same,"Subjects achieving HbA1c target of <6.5%, (%)",[5],17.07%
same,"Subjects achieving HbA1c target of <7%, %",[5],62.60%
same,"body weight, Median",[5],62.90 kg
same,"Subjects achieving therapeutic glycemic response 1, %",[5],85.37%
same,"Subjects achieving therapeutic glycemic response 2, %",[5],82.11%
same,"Subjects achieving therapeutic glycemic response 3, %",[5],74.80%

# Reference: patent US20260130933A1, “PHARMACEUTICAL COMPOSITION FOR PREVENTION OR TREATMENT OF NEPHROPATHY AND/OR DIABETES MELLITUS, COMPRISING ENAVOGLIFLOZIN” (DAEWOONG PHARMACEUTICAL CO., LTD., priority 2022, published 2026)
